Assay results published in patent publication US12533357B2, “Treatment for acute myeloid leukemia or myelodysplastic syndrome” (UNIVERSITY HEALTH NETWORK, priority 2019, dated 2026).

Tests used:
[1] = test system: MOLT-4 acute lymphoblastic leukemia xenograft; test: MOLT-4 xenograft tumor growth in SCID mice; format: in vivo; details: day 13; 0.5 mg/kg IP weekly; p=0.21
Description: The human acute lymphoblastic leukemia cell line MOLT-4 was acquired from American Type Culture Collection (Manassas, VA, USA) and grown in RPMI medium containing 100 units/mL penicillin G sodium, 100 μg/mL streptomycin sulfate. The media was supplemented with 10% heat-inactivated fetal bovine serum, 2 mM L-glutamine, and 0.11% sodium pyruvate. The tumor cells were maintained in a humidified environment of 5% CO2 and 95% air at 37° C. Cells were verified to be free of mouse pathogens by IMPACT IV PCR analysis (IDEXX RADIL, Colombia, MO, USA) before injection.
(§1) Female SCID mice were purchased from the Ontario Cancer Institute and received and acclimated at the MaRS-TMDT Animal Resources Centre for 2 weeks prior to the start of the experiment. The mice were fed ad libitum autoclaved water and Rodent Lab Diet (Harlan Teklad LM-485) consisting of 19% crude protein, 5% crude fat, and 5% crude fiber. Mice were housed in microisolator cages and maintained in an environment with a 12-hour light cycle at 20-22° C. and 40-60% humidity. On the day of implantation, MOLT-4 cells were harvested and resuspended with serum free DMEM to a concentration of 1×10^8/mL and each mouse was injected subcutaneously with a volume of 0.1 mL containing 1×10^7 MOLT-4 cells in the right rear flank.
Animals were dosed Compound (I) via oral gavage in a volume of 10 mL/kg. The animals were dosed with a 2.25 mm×50 mm curved gavage needle affixed to a 1 mL syringe. Vincristine was dosed by IP injection once per week.
(§2) Toxicity was evaluated by body weight measurements and clinical observations. The mice were observed daily for overt signs of any adverse, treatment related side effects, and clinical signs of toxicity. Acceptable toxicity was set at a group mean body weight loss of less than 20% during the study and not more than one treatment related death in a group. Animals were monitored for body weights and tumor growth where tumor volumes were calculated using the formula: tumor volume=width^2×length/2.
(§3) The study evaluated Compound (I) fumarate administered by oral gavage for 21 days, either daily at 7.5 mg/kg or 2 days on/5 days off at 13.5 mg/kg, in comparison to the standard-of-care agent vincristine, dosed in 4 weekly intraperitoneal injections of 0.5 mg/kg, in the MOLT-4 […] xenograft model in SCID (severe combined immunodeficiency) mice. Xenografts were established by subcutaneously injecting 1×10^7 tumor cells into the right flank of female SCID mice. Treatment was initiated 9 days following implantation when tumor volumes reached a mean volume of approximately 250 mm^3.

[2] = test system: MV4-11 acute myeloid leukemia xenograft; test: MV4-11 xenograft tumor growth in SCID mice; format: in vivo; details: day 13; vincristine 0.5 mg/kg IP weekly; p=0.14
Description: The human acute myeloid leukemia cell line MV4-11 was acquired from American Type Culture Collection (Manassas, VA, USA) and grown in RPMI medium containing 100 units/mL penicillin G sodium, 100 μg/mL streptomycin sulfate. The media was supplemented with 10% heat-inactivated fetal bovine serum, 2 mM L-glutamine, and 0.11% sodium pyruvate. The tumor cells were maintained in a humidified environment of 5% CO2 and 95% air at 37° C. Cells were verified to be free of mouse pathogens by IMPACT IV PCR analysis (IDEXX RADIL, Colombia, MO, USA) before injection.
as §1, with “MV4-11” for “MOLT-4”
Animals were dosed Compound (I) via oral gavage in a volume of 10 ml/kg. The animals were dosed with a 2.25 mm×50 mm curved gavage needle affixed to a 1 ml syringe. Vincristine was dosed by IP injection once per week.
as §2
as §3, with “gavage,” for “gavage for 21 days,”, “MV4-11” for “MOLT-4”, “14” for “9”, “90” for “250”, “mm^3. […] Animals were dosed in the 2-on/5-off schedule for 21 days. […] By day 13, the average volume of the control tumors was 878 mm^3, averaging […] tumor growth over the 13 days. On day 13 the average tumor growth inhibition in the vincristine treated arm was 85% (p=0.14).” for “mm^3.”

CC[C@]1(O)C[C@H]2CN(CCc3c([nH]c4ccccc34)[C@@](C(=O)OC)(c3cc4c(cc3OC)N(C=O)[C@H]3[C@@](O)(C(=O)OC)[C@H](OC(C)=O)[C@]5(CC)C=CCN6CC[C@]43[C@@H]65)C2)C1 [vincristine, reference compound]
average tumor growth inhibition [1]: 18% | average tumor growth inhibition [2]: 85%
